Data on 19 compounds can be found in patent US8940748B2, “Iminothiadiazine dioxide compounds as BACE inhibitors, compositions, and their use” (Merck Sharp & Dohme Corp., priority 2009, dated 2015).

SMILES strings stand for the structures.

Series [1] is described as follows: Solution stability, Example A (pH 7.4 phosphate buffer/MeOH, LC/MS). Type of series: physicochemical. The conditions noted are these: for degredation: aqueous pH 7.4 buffer containing methanol. On the procedure:
A 1.05 mg/mL stock solution (5 mL) of Ex. 45 in MeOH was prepared. From the stock solution was taken out 1.25 mL and diluted to 25 mL with the addition of 23.75 mL of 10 mM phosphate buffer (pH 7.4)/MeOH (70/30 v/v). This new solution was split into three. One solution was incubated at 4° C., another incubated at 25° C. and the third incubated at 40° C. Each solution was analyzed by LC/MS after day 1, day 2 and day 6 and compared to a standard calibration curve for Ex. 45.
In the following study, the solution stability of the compound of Example 45 was measured and compared to that of Compound Z. The compound of Example 45 is an iminothiadiazine dioxide compound of the invention. Compound Z is the corresponding iminopyrimidinone compound. The structures of the compound of Example 45 and of Compound Z are shown below. Studies were performed in aqueous pH 7.4 buffer containing methanol at 4° C., 25° C. and 40° C.

Series [2] concerns endogenous rat Aβ1-40 (Aβ40) in cortex. Description: Cortical Aβ40 in rats after oral dosing (Luminex-based immunodetection). As to conditions: rats, 3 h after a 10 mg/kg oral dose, vs vehicle cohort, read-out: Change in rat cortex Aβ40. It counts as in vivo.
Procedure: The following procedures were used.
Male CD rats (˜100 g; Crl:CD(SD); Charles River Laboratories, Kingston, N.Y.) were group housed and acclimated to the vivarium for 5-7 days prior to use in a study. Compounds were formulated in 20% hydroxypropyl-β-cyclodextrin and administered orally with a dosing volume of 5 ml/kg for rats. Three h after drug administration, rats were euthanized with excess CO2. The brain was removed from the skull and immediately frozen on dry ice. All tissues were stored at −70° C. until Aβ quantification.
Ab585 was labeled with biotin (b-Ab585) by first dialyzing the antibody sample extensively versus PBS (pH 7.8) to remove impurities, followed by dilution to between 1 and 2 mg/mL protein concentration. EZ-Link Sulfo-NHS-LC-Biotin (Pierce) was dissolved in PBS (pH 7.8) at a concentration of 1 mg/mL immediately prior to use. Ab585 was labeled with EZ-Link Sulfo-NHS-LC-biotin using a 10:1 biotin:antibody ratio by incubation at room temperature for 1 hour. The labeling reaction was quenched by addition of 1.0 M glycine to a final concentration of 0.1 M followed by 10 minute incubation at room temperature. Glycine was removed by extensive dialysis versus PBS.
The antibody was coupled to the beads using the Bio-Plex Amine Coupling Kit (Bio-Rad) as per the manufacturer's recommendations.
Rat cortex Aβ40 levels were measured from guanidine HCl extracts of individual rat cortices using a Luminex-based immunodetection assay. Rat brains were thawed briefly at 37° C. and both mid- and hindbrain regions were removed. The remaining material, consisting primarily of cortex (˜800 mg) was carried through the guanidine extraction procedure. Cortices were added to a 2 ml BioPur tube (Eppendorf) along with a 6.35 mm chrome-coated steel ball and 1.0 ml of sucrose homogenization buffer (20 mM HEPES [pH 7.5], 50 mM KCl, 50 mM sucrose, 2 mM EDTA, 2 mM EGTA supplemented with complete protease inhibitors [Roche, EDTA-free]). Samples were then homogenized by agitation for 1.5 min at 30 cycles/sec in a MM300 tissue mixer (Retsch®). The resulting cortical homogenate was extracted with guanidine-HCl by mixing 67 μl of homogenate with 133 μl of 5 M Guanidine HCl, 50 mM Tris HCl (pH 8.0). To maximize the efficiency of Aβ extraction, samples were vortexed and then sonicated for 2 minutes in an ice bath using an Ultrasonics XL cup horn sonicator at a power setting of 8 (Heat Systems, Inc.). Insoluble material was removed by ultracentrifugation using a using a TLA-55 rotor in a TL-100 benchtop centrifuge (Beckman) at 100,000×g for 30 minutes. The resulting supernatant was then either diluted 1:10 in 5 M guanidine HCl, 0.05 M Tris HCl (pH 8.0) for protein analysis (BCA protein assay, Pierce Biochemicals) or assayed neat for Aβ40 levels. The Luminex rodent Aβ40 assay was performed as follows. First, 96 well filter binding plates (Millipore, catalogue # MSBVN12) were wetted with 100 μl of 1×LAβ40 buffer (0.05 M HEPES [pH 7.5], 0.2% BSA, 0.2% Tween-20, 0.15 M NaCl) by vacuum filtration on a Millipore 96-well manifold. The plate bottom was sealed and 100 μl of 1×LAβ40 buffer was added to each well followed by addition of 50 μl each of G2-10:COOH beads (1000 beads/well) and 50 μl b-Ab585 at 0.5 μg/ml in 1×LAβ40 buffer. Guanidine HCl was added to synthetic rodent Aβ40 standards in order to control for the effect of guanidine in brain extracts on the assay performance. Ten microliters of cortical extract, rodent Aβ40 standards or cortical extract from amyloid precursor protein knockout mice (to define background immunoreactivity) was added to each well. Plates were covered and incubated overnight at 4° C. Following the incubation, wells were cleared by vacuum and washed twice with 100 μl of 1×LAβ40 buffer on a Millipore manifold.
Series [3] deals with soluble human BACE1 catalytic domain (Homo sapiens (Human), UniProt P56817). The experiment in a line: BACE1 HTRF FRET assay. It counts as biochemical. As to conditions: Ki calculated from IC50 using the Cheng-Prusoff equation; read-out: BACE-1 Ki.
Sequence of soluble human BACE1 catalytic domain (P56817 75-416): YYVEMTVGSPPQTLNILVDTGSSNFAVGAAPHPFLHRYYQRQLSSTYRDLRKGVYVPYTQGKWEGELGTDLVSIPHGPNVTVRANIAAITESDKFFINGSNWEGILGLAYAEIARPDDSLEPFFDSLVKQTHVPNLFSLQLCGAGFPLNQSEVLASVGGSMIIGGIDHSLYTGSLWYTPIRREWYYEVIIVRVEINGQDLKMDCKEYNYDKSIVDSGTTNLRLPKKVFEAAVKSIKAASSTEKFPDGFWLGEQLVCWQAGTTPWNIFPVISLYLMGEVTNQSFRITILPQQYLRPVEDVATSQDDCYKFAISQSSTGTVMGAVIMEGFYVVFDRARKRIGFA
A further series deals with P-gp. The experiment in a line: Caco-2 bi-directional permeability. It counts as in vitro ADME. As to conditions: human, Caco-2.
For series [4], the target named is purified human autoBACE-2 (Homo sapiens (Human), UniProt Q9Y5Z0). Description: BACE-2 assay (BACE-HTRF, time-resolved endpoint proteolysis). As to conditions: Ki calculated from IC50 using the Cheng-Prusoff equation. It counts as biochemical.
Sequence of purified human autoBACE-2 (Q9Y5Z0 63-473 limits assumed): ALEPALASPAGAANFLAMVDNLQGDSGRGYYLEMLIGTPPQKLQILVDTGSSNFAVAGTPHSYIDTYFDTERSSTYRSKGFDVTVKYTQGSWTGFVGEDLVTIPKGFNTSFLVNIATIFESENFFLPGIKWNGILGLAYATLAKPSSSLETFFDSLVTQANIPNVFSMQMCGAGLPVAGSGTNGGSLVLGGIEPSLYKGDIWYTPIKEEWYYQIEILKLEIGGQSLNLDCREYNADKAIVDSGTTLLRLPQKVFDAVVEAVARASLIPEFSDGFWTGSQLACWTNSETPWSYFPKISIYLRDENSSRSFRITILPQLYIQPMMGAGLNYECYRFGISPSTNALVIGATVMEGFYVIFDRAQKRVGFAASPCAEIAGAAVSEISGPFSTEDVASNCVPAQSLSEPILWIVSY
Procedure: Inhibitor IC50s at purified human autoBACE-2 were determined in a time-resolved endpoint proteolysis assay that measures hydrolysis of the QSY7-[sequence]-Eu-amide FRET peptide substrate (BACE-HTRF assay). […] DMSO was present at 5% final concentration in the assay. Following laser excitation of sample wells at 320 nm, the fluorescence signal at 620 nm was collected for 400 ms following a 50 μs delay on a RUBYstar HTRF plate reader (BMG Labtechnologies). Raw RFU data was normalized to maximum (1.0 nM BACE/DMSO) and minimum (no enzyme/DMSO) RFU values. […] The Ki values were calculated from the IC50 using the Cheng-Prusoff equation.
A short description of series [5]: Solution stability, Example B (50 mM pH 7.4 phosphate buffer, 25° C., LC/MS). Type of series: physicochemical. On the procedure: Stock solutions of the tested compounds were prepared by dissolving about 3 mg of each compound in 3 mL of acetonitrile. Standards for test compounds were prepared by diluting 1 mL of the stock solution with an additional 4 mL of acetonitrile. These standards were stored at 4° C. Samples were prepared by diluting 1 mL of the stock solution with 4 mL of 50 mM pH 7.4 phosphate buffer. These samples were stored at 25° C. in the absence of light. Standards and samples were analyzed by LC/MS initially and at day 1, day 4, and day 6.
Mobile phase A: 10 mM pH 5 ammonium acetate buffer:methanol (90:10)
Mobile phase B: 10 mM pH 5 ammonium acetate buffer:methanol (10:90)
Column: Zorbax SB-Phenyl 4.6×50 mm, 1.8 μm
Column temperature: 40° C.
Area % is the integration of peak from HPLC as reported by Waters Empower II software.
In the following study, the solution stability of the compound of Example 47 was measured and compared to that of Compound Y. The compound of Example 47 is an iminothiadiazine dioxide compound of the invention. Compound Y is the corresponding iminopyrimidinone compound. The structures of the compound of Example 47 and of Compound Y are shown below. Studies were performed in pH 7.4 buffer at 25° C.

A short description of series [6]: Caco-2 bi-directional permeability. It counts as in vitro ADME. The conditions noted are these: human, Caco-2; permeability apical to basolateral; read-out: Caco-2 AP→BL.
Procedure: (§1) The bi-directional permeability with efflux potential of selected compounds of the invention vs. otherwise structurally identical iminopyrimidinones (collectively referred to as test compounds, shown in the table below) were assessed using Caco-2 cell line. The Caco-2 cells were maintained in DMEM (Dulbecco's Modified Eagle Medium) containing 10% fetal bovine serum, 1% non-essential amino acids, 2 mM L-glutamine, and 1% penicillin-streptomycin in an incubator at ˜37° C. in an atmosphere of 5% CO2 and about 90% relative humidity. The cell culture medium was changed three times weekly. Caco-2 cell monolayers were grown on polyethylene terephthalate filters using 24-well BD Falcon™ Cell Culture Insert Plates (0.33 cm^2 insert area, 1 μm pore size; BD BioSciences, Bedford, Mass.). The culture medium of the plate was changed every other day until used for the transport experiment (21-28 days post seeding).
(§2) The transport buffer (TM) was Hank's balanced salt solution (HBSS) with 10 mM HEPES and 25 mM glucose (pH 7.4) for dosing and TM with 4% bovine serum albumin for receiver (pH 7.4). The bi-directional permeability of the test compounds were tested at concentrations of 1, 10 and 100 μM was measured in triplicate with 2-hr incubation. The cell monolayer integrity was monitored with pre- and post-experimental trans-epithelial electrical resistance and post-experimental Lucifer Yellow (LY) permeability with 1 hr incubation.
(§3) The apparent permeability, recovery and efflux ratio values were calculated using the following equations:
(§4) where, • dCR/dt: The slope of the accumulative concentration in the receiver compartment versus time incubation (μM·s^−1) • C0hr: Donor concentration (μM) immediately after dosing • CD, final: Donor concentration (μM) at the end of incubation • S: Membrane surface area (cm^2) • VD: Volume of donor compartment (mL) • VR: Volume of receiver compartment (mL) • Papp-BLtoAP: Permeability from basolateral (BL) to apical (AP) transport
Setting [7] is: pH 7.4, 40° C., last column without time heading.
The mark [8] stands for this setting: Standard (in acetonitrile, stored at 4° C.).

Procedure for P-gp: as §1, §2, §3, §4

Consider `CN1C(=N)N[C@](C)(c2cc(-c3cccc(C#N)c3)cs2)CC1=O` [Compound Z], for which the degredation in series [1] (4° C., after 1 day) was found to be 18.3%; in series [1] (25° C., time not stated) it was 53.87%; in series [1] (40° C., after 1 day), 79.93%. Also, the “Assay (Area %)” value worked out at 69.84 Area % in series [1] (pH 7.4, 4° C., 1 day); 88.15 Area % in series [1] (pH 7.4, 4° C., Initial); 34.28 Area % in series [1] (pH 7.4, 25° C., 1 day); 88.15 Area % in series [1] (pH 7.4, 25° C., Initial); 8.22 Area % in series [1] (pH 7.4, 40° C., 1 day); 88.15 Area % in series [1] (pH 7.4, 40° C., Initial). The “Assay (Area %), degradation symbol” value in series [1] (pH 7.4, 4° C., 2 days) is reported as “— ((—) stands for > 20% degradation)”; in series [1] (pH 7.4, 4° C., 6 days), “— ((—) stands for > 20% degradation)”; in series [1] (pH 7.4, 4° C., last column without time heading) it was “— ((—) stands for > 20% degradation)”; in series [1] (pH 7.4, 25° C., 2 days) it was “— ((—) stands for > 20% degradation)”; in series [1] (pH 7.4, 25° C., 6 days), “— ((—) stands for > 20% degradation)”; in series [1] (pH 7.4, 25° C., last column without time heading), “— ((—) stands for > 20% degradation)”. Also, the “Assay (Area %), degradation symbol” value in series [1] (pH 7.4, 40° C., 2 days) is reported as “— ((—) stands for > 20% degradation)”; in series [1] (pH 7.4, 40° C., 6 days), “— ((—) stands for > 20% degradation)”; in series [1] (setting [7]), “— ((—) stands for > 20% degradation)”.
Turning to `CN1C(=N)N[C@](C)(c2cc(NC(=O)c3ccc(F)cn3)ccc2F)CS1(=O)=O` [Example 25], the change in vivo at 10 mg/kg in series [2] was -49%.
Consider `CN1C(=N)N[C@](C)(c2cc(NC(=O)c3ccc(C(F)(F)F)cn3)ccc2F)CS1(=O)=O` [Example 26], for which the Ki in series [3] is 1.26 nM; in series [4], 2.46 nM. Further, in the series with P-gp, the efflux ratio at 2 h is 2.9. The change in vivo at 10 mg/kg in series [2] is -33%.
For the compound `CN1C(=N)N[C@](C)(c2cc(NC(=O)c3ccc(Cl)cn3)ccc2F)CS1(=O)=O` [Example 34], the Ki in series [3] was 0.949 nM; in series [4], 0.22 nM. Also, in the series on P-gp, the efflux ratio at 2 h amounted to 3.1. Besides, the change in vivo at 10 mg/kg in series [2] was -51%.
In the case of `Cc1ccc(C(=O)Nc2ccc(F)c([C@]3(C)CS(=O)(=O)N(C)C(=N)N3)c2)nc1` [Example 35], the Ki is 3 nM in series [3] and 0.45 nM in series [4]. Moreover, in the series on P-gp, the efflux ratio at 2 h was determined as 2.1.
As to `Cc1cnc(C(=O)Nc2ccc(F)c([C@]3(C)CS(=O)(=O)N(C)C(=N)N3)c2)cn1` [Example 36], the values for the Ki in series [3] and in series [4] were 10 nM and 4.85 nM, respectively. Further, in the series on P-gp, the efflux ratio at 2 h was 3.3. In series [2], the change in vivo at 10 mg/kg was -25%.
The corresponding values for `COc1cnc(C(=O)Nc2ccc(F)c([C@]3(C)CS(=O)(=O)N(C)C(=N)N3)c2)cn1` [Example 40ai] are 1.64 nM, 1.99 nM, 1.8 and -51%.
Turning to `CN1C(=N)N[C@](C)(c2cc(-c3cccc(C#N)c3)cs2)CS1(=O)=O` [Example 45], the Ki in series [3] is 25.6 nM. In addition, the efflux ratio at 2 h in the series on P-gp is 1.4. For the same compound, the degredation in series [1] (4° C., after 6 days) is on record as 0.93%; in series [1] (25° C., after 6 days), 7.4%; in series [1] (40° C., after 6 days) it was 30.71%. The “Assay (Area %)” value was determined as 99.69 Area % in series [1] (pH 7.4, 4° C., 1 day); 99.04 Area % in series [1] (pH 7.4, 4° C., 2 days); 98.89 Area % in series [1] (pH 7.4, 4° C., 6 days); 99.82 Area % in series [1] (pH 7.4, 4° C., Initial); 98.45 Area % in series [1] (pH 7.4, 25° C., 1 day); 96.07 Area % in series [1] (pH 7.4, 25° C., 2 days). The “Assay (Area %)” value in series [1] (pH 7.4, 25° C., 6 days) was 92.43 Area %; in series [1] (pH 7.4, 25° C., Initial) it was 99.82 Area %; in series [1] (pH 7.4, 40° C., 1 day), 96.32 Area %; in series [1] (pH 7.4, 40° C., 2 days), 89.70 Area %; in series [1] (pH 7.4, 40° C., 6 days) it was 69.11 Area %; in series [1] (pH 7.4, 40° C., Initial), 99.82 Area %. Besides, the “Assay (Area %), degradation symbol” value in series [1] (setting [7]) was “— ((—) stands for > 20% degradation)”.
Turning to `CN1C(=N)N[C@](C)(c2cc(-c3ccc(F)c(C#N)c3)cs2)CS1(=O)=O` [Example 46], the Ki was 46 nM in series [3] and 8.23 nM in series [4].
For the compound `CC#Cc1cncc(-c2csc([C@]3(C)CS(=O)(=O)N(C)C(=N)N3)c2)c1` [Example 47], the inhibition constant (Ki) in series [3] was approximately 6.5 nM. Also, in series [5] (Sample at pH 7.4, 25° C.), the “Area %, Day 1 (Unknown peak, RRT 1.49)” value worked out at 1.44 Area %; the “Area %, Day 1 (parent peak, RRT 1.00)” value is 98.56 Area %; the “Area %, Day 4 (Unknown peak, RRT 1.49)” value turned out to be 1.47 Area %; the “Area %, Day 4 (parent peak, RRT 1.00)” value worked out at 98.53 Area %. In series [5] (Sample at pH 7.4, 25° C.), the “Area %, Day 6 (Unknown peak, RRT 1.49)” value amounted to 1.47 Area %; the “Area %, Day 6 (parent peak, RRT 1.00)” value worked out at 98.53 Area %; the “Area %, Initial (Unknown peak, RRT 1.49)” value came out at 1.45 Area %; the “Area %, Initial (parent peak, RRT 1.00)” value is recorded as 98.55 Area %. In addition, in series [5] (setting [8]), the “Area %, Day 1 (Unknown peak, RRT 1.49)” value is listed as 1.45 Area %; the “Area %, Day 1 (parent peak, RRT 1.00)” value came out at 98.55 Area %; the “Area %, Day 4 (Unknown peak, RRT 1.49)” value worked out at 1.48 Area %; the “Area %, Day 4 (parent peak, RRT 1.00)” value worked out at 98.52 Area %. Moreover, in series [5] (setting [8]), the “Area %, Day 6 (Unknown peak, RRT 1.49)” value came to 1.48 Area %; the “Area %, Day 6 (parent peak, RRT 1.00)” value was 98.52 Area %; the “Area %, Initial (Unknown peak, RRT 1.49)” value stood at 1.47 Area %; the “Area %, Initial (parent peak, RRT 1.00)” value was found to be 98.53 Area %. In addition, the hydrolysis product in series [5] (pH 7.4 buffer at 25° C., after 6 days) was 0%. Also, the inhibition constant (Ki) in series [4] was approximately 1 nM.
Take `CN1C(=N)N[C@](C)(c2c(F)ccc(NC(=O)c3ccc(F)cn3)c2F)CS1(=O)=O` [Example 173]: in series [6], the Papp A→B at 2 h stood at 12.6 ×10⁻⁶ cm/s. Moreover, the change in vivo at 10 mg/kg in series [2] is -27%.
Regarding `CN1C(=N)N[C@](C)(c2cc(NC(=O)c3ccc(F)cn3)ccc2F)CC1=O` [Iminopyrimidinone 25], the efflux ratio at 2 h in the series on P-gp turned out to be 10.6. The Papp A→B at 2 h in series [6] came out at 2.2 ×10⁻⁶ cm/s. Also, in series [2], the change in vivo at 10 mg/kg is -11%.
The corresponding values for `CN1C(=N)N[C@](C)(c2cc(NC(=O)c3ccc(C(F)(F)F)cn3)ccc2F)CC1=O` [Iminopyrimidinone 26] are 11.3, 1.7 ×10⁻⁶ cm/s and 0%.
`Cc1cnc(C(=O)Nc2ccc(F)c([C@]3(C)CC(=O)N(C)C(=N)N3)c2)cn1` [Iminopyrimidinone 36]: the efflux ratio at 2 h with P-gp was found to be 12.9. Moreover, the Papp A→B at 2 h in series [6] came out at 1.1 ×10⁻⁶ cm/s.
For `COc1cnc(C(=O)Nc2cc(F)c(F)c([C@]3(C)CC(=O)N(C)C(=N)N3)c2)cn1` [Iminopyrimidinone 40di], the efflux ratio at 2 h with P-gp was determined as 3.2. Further, the Papp A→B at 2 h in series [6] is 6.5 ×10⁻⁶ cm/s. The change in vivo at 10 mg/kg in series [2] was determined as 5%.
The corresponding values for `CN1C(=N)N[C@](C)(c2cc(-c3cccc(C#N)c3)cs2)CC1=O` [Iminopyrimidinone 45] are 2.6, 17.4 ×10⁻⁶ cm/s and -5%.
As for `CN1C(=N)N[C@](C)(c2cc(-c3ccc(F)c(C#N)c3)cs2)CC1=O` [Iminopyrimidinone 46], the efflux ratio at 2 h in the series on P-gp came to 2.6. Also, in series [6], the Papp A→B at 2 h turned out to be 13.6 ×10⁻⁶ cm/s.
For `CC#Cc1cncc(-c2cc(Cl)c([C@]3(C)CC(=O)N(C)C(=N)N3)s2)c1` [Iminopyrimidinone 52, reference compound], the Papp A→B at 2 h in series [6] amounted to 15.3 ×10⁻⁶ cm/s.
For the compound `CN1C(=N)N[C@](C)(c2c(F)ccc(NC(=O)c3ccc(F)cn3)c2F)CC1=O` [Iminopyrimidinone 173], in the series on P-gp, the efflux ratio at 2 h worked out at 6.1. Besides, the Papp A→B at 2 h in series [6] was found to be 2.5 ×10⁻⁶ cm/s. Besides, the change in vivo at 10 mg/kg in series [2] is -3%.
